What follows are molecules tested against T1, Nitric oxide synthase 3 (Homo sapiens, UniProt P29474) (assay: Enzyme Assay: Enzyme assay using recombinant human inducible NOS (iNOS), human endothelial constitutive NOS (eNOS) or human neuronal constitutive NOS (nNOS).).
T1 sequence (P29474 whole entry): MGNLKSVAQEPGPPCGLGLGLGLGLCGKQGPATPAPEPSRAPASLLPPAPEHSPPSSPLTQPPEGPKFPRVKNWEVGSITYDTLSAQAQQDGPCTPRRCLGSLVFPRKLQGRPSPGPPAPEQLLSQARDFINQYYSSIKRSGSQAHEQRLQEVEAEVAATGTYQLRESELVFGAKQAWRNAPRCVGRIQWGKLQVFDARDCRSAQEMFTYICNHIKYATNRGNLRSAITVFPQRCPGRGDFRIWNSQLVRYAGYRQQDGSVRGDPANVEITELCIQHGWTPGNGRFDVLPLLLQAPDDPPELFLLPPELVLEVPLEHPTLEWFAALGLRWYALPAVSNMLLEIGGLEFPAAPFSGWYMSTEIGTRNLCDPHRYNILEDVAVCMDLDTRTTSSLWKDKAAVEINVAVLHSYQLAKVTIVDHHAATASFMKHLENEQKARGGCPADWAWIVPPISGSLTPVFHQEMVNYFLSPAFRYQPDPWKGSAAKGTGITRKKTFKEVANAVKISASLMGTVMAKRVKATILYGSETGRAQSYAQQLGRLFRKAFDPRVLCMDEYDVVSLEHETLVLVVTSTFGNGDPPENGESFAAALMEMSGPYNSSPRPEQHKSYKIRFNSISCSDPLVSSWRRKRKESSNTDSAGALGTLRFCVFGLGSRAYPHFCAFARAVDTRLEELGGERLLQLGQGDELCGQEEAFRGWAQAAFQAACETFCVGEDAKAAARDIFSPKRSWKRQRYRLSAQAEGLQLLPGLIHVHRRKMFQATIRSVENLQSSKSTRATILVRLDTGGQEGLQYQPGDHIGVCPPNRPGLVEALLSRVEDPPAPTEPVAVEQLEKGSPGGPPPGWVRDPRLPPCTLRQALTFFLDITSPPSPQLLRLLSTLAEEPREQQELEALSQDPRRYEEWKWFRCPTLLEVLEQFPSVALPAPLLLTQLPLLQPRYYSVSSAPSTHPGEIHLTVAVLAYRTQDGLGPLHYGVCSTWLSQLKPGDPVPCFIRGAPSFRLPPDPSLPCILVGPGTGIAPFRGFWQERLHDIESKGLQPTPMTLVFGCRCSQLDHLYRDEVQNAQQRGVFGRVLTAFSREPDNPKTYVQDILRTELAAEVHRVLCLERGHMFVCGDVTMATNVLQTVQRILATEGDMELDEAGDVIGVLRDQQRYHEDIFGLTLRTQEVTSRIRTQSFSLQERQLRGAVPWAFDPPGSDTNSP

SMILES | IC50
CN1CC[C@@H](c2c[nH]c3ccc(/N=C(\N)c4cccs4)cc23)[C@H](F)C1 | 40100 nM

What follows are molecules tested against 5-hydroxytryptamine 1D receptor (Bos taurus, UniProt Q8MI13) (assay: Binding Assay: 5-HT1D binding assays (agonist radioligand)were performed using bovine caudate membranes according to the methods of Heuring and Peroutka (J. Neurosci 1987, 7: 894-903). 5-HT1B (rat cerebral cortex) binding assays (agonist radioligand) were performed according to the method of Hoyer et. al. (Eur. J. Pharmacol. […], 118: 1-12).).
Type: tissue-based

Sequence of 5-hydroxytryptamine 1D receptor (Q8MI13 whole entry): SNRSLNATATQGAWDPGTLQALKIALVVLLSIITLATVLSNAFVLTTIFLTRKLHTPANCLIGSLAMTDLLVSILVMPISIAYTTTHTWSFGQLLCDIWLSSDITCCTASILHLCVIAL

SMILES | IC50
CN1CC=C(c2c[nH]c3ccc(NC(=S)NC(=O)c4ccccc4)cc23)CC1 | 56 nM
CN1CC=C(c2c[nH]c3ccc(CNC(=N)c4cccs4)cc23)CC1 | 220 nM
CN1CC=C(c2c[nH]c3ccc(NC(=N)c4cccs4)cc23)CC1 | 51 nM
CN1CC=C(c2c[nH]c3ccc(NC(=N)c4ccco4)cc23)CC1 | 50 nM
CN1CCC(c2c[nH]c3ccc(NC(=N)c4cccs4)cc23)CC1 | 570 nM
CCSC(=N)Nc1ccc2[nH]cc(C3=CCN(C)CC3)c2c1 | 48 nM
CN(C)CCc1c[nH]c2ccc(CNC(=N)c3cccs3)cc12 | 290 nM
CCN1CCC(c2c[nH]c3ccc(NC(=N)c4cccs4)cc23)CC1 | 680 nM
CN1CCC[C@@H]1Cc1c[nH]c2ccc(NC(=N)c3cccs3)cc12 | 130 nM
CN1CCC[C@H]1Cc1c[nH]c2ccc(NC(=N)c3cccs3)cc12 | 1100 nM
CN1CCC(c2c[nH]c3ccc(NC(=N)c4cccs4)cc23)C1 (stereo not drawn) | 350 nM
CN1CCC(c2c[nH]c3ccc(/N=C(\N)c4ccco4)cc23)C1 (stereo not drawn) | 560 nM

From ChEMBL document CHEMBL3638726, “Substituted indole compounds having NOS inhibitory activity” (2013)
